Data as given in US20160000762A1, “IMPROVING COGNITIVE FUNCTION” (THE REGENTS OF THE UNIVERSITY OF CALIFORNIA, priority 2013, published 2016).

What was measured:
[1] = tested on: primary hippocampal neurons; assay: Dendritic spine density in transfected primary hippocampal neurons; assay type: cell-based, Sprague-Dawley rats; settings: 5 μM
Method: Primary neuron culture and immunostaining. Primary hippocampal neurons from E19 Sprague-Dawley rats were cultured at 150 cells/mm^2 as previously described (Pak et al., 2001). Neurons were transfected using Lipofectamine™ 2000 (Invitrogen, Carlsbad, Calif., USA) or calcium phosphate precipitation with GFP+PLL, GFP+APP shRNA, or GFP+APP and treated with BTA-EG4. The following antibodies were used: mouse anti-GFP (Novus Biologicals, 9F9.F9), rabbit anti-GFP (Invitrogen, A11122), rabbit anti-GluR1 (Calbiochem, PC246), mouse anti-GluR2 (BD Pharmagen, 556341), mouse anti-postsynaptic density (PSD)-95 (NeuroMabs, Davis, Calif., USA), mouse anti-Synaptophysin (Sigma Aldrich, s5768), rabbit APP N-terminal (Sigma-Aldrich, A8967), anti-Ras (BD Biosciences, 610001), anti-RasGRF1 (Santa Cruz, C-20; BD Biosciences, 610149), anti-ERK1/2 (Cell Signaling, 4695), anti-p-ERK1/2 (Invitrogen, 36880), anti-CREB (Cell Signaling, D76D11), anti-p-CREB (Millipore, 06-519), and mouse anti-c-Myc (Novus Biologicals, 9E10). Cultured hippocampal neuron images were acquired by LSM 510 laser scanning confocal microscope (Zeiss). Confocal zseries image stacks encompassing entire dendrite segments were analyzed using MetaMorph software (Universal Imaging Corporation, Downington, Pa., USA).
To examine whether BTA-EG4 acts through APP to increase dendritic spine density, we acutely knocked down APP using shRNA in primary hippocampal neurons. APP shRNA was cotransfected with GFP to visualize dendritic spines, and control cultures were transfected with GFP and PLL (control vector for shRNA construct). We then treated both cultures with BTA-EG4 (5 μM) or vehicle. […] To confirm this finding in vivo, we examined the effect of BTA-EG4 on dendritic spine density in APP knockout (KO) mice. APP-KO mice were injected with BTA-EG4 (30 mg/kg) or vehicle for 2 weeks, and Golgi analysis was conducted on hippocampal CA1 neurons.
To examine whether the effect of BTA-EG4 on dendritic spine formation is Ras dependent, primary hippocampal neurons were transfected with GFP and RasGRF1 shRNA, or GFP and PLL. After 24 h, we treated with BTA-EG4 (5 μM) or control for another 24 h, and spine density was measured using immunofluorescence. […] After 24 h, we then treated neurons with BTA-EG4 (5 μM) or control for 24 h, and spine density was measured. Ras-WT alone or combined with BTA-EG4 increased dendritic spine density compared with control (FIGS. 7K, 7L).

CA1 pyramidal neurons = assay: Whole cell recordings (mEPSC, AMPA/NMDA) in CA1 pyramidal neurons of injected mice; assay type: in vivo; settings: 30 mg/kg i.p., 2 weeks
Method: Electrophysiology. Transverse [for Schaffer collateral (SC) input studies] or horizontal [for temporammonic (TA) input studies] hippocampal slices (400-μm thick) were prepared from adult mice. Slices were made using ice-cold dissection buffer (in mM: 212.7 sucrose, 2.6KCl, 1.23NaH2PO4, 10 dextrose, 3MgCl2 and 1CaCl2; 5% CO2/95% O2), and recordings were done in a submersion-type chamber perfused with artificial cerebrospinal fluid (ACSF, in mM: 124NaCl, 5KCl, 1.25NaH2PO4, 26NaHCO3, 10 dextrose, 1.5MgCl2, and 2.5CaCl2; 5% CO2/95% O2, 29.5-30.5° C., 2 ml/min). For field potential recordings, synaptic responses were evoked using 0.2 ms duration pulses delivered through a bipolar glass stimulating electrode at 0.0333 Hz. A train of TBS consisted of a burst of 4 pulses at 100 Hz repeated 10 times at 5 Hz. For 4× TBS, 4 trains of TBS were given at 10 sec inter-train-intervals. […] Recording was initiated 2-3 min after break-in, and each cell was recorded for 10-15 min to collect enough mEPSCs for analysis. […] Cells were held at −70 mV, and the recorded mEPSC data were digitized at 10 kHz with a data acquisition board (National Instruments, Austin, Tex.) and acquired through custom-made programs using the Igor Pro software (WaveMetrics, Lake Oswego, Oreg.). […] Only about 4% of the total recorded cells (at most 1 cell per experimental group) were excluded due to negative correlation between mEPSC rise and amplitude. One hundred consecutive mEPSCs that met the rise time criteria were analyzed from each cell. AMPAR- and NMDAR-mediated currents were measured at −70 and +40 mV, respectively. AMPAR mediated EPSC amplitudes were measured at the peak of the current at −70 mV. NMDAR mediated EPSC amplitudes were measured 100 ms after the stimulation artifact. […]
To verify that the increase in dendritic spine density and synaptic proteins reflects an increase in functional synapses, we measured miniature excitatory postsynaptic currents (mEPSCs) from CA1 neurons in hippocampal slices following in vivo administration of BTA-EG4 (30 mg/kg, i.p.) for 2 weeks.

BTA-EG4
dendritic spine density ([1]; 24 h, GFP and PLL control vector): significantly increased | dendritic spine density ([1]; 24 h, RasGRF1 knockdown): prevented the effect | dendritic spine density ([1]; 24 h, combined with Ras-WT, vs control): increased | dendritic spine density ([1]; 24 h, in the presence of RasN17): could no longer increase | dendritic spine density ([1]; knockdown of APP (APP shRNA)): prevented the increase | AMPAR/NMDAR ratio (CA1 pyramidal neurons): did not observe a change | average mEPSC amplitude (CA1 pyramidal neurons): no significant difference | frequency of mEPSCs (CA1 pyramidal neurons): significantly increased
